Experiments:
[1] = test system: RAW264.7 macrophages infected with S. typhimurium (SL1344); assay: TUNEL staining of Salmonella-infected macrophages (apoptosis); format: cell-based; conditions: 30 μM mevinolin from 4 hours prior to infection, 13 hours post infection
Description: RAW264.7 macrophages were treated with 30 uM mevinolin starting at 4 hours prior to infection. Infections were done with S. typhimurium (SL1344) at a moi of 10 bacteria per cell. At 13 hours post infection, cells were fixed and processed for TUNEL staining. At least 100 infected and 100 uninfected cells were counted in each monolayer and scored for TUNEL staining. Uninfected cells (black) and infected cells (gray) are shown. Averages of duplicate samples are shown.

[2] = test system: Salmonella; assay: Extracellular growth of Salmonella in Luria broth (optical density); format: cell-based; conditions: LB containing 30 uM mevinolin, 37° C., optical density at 23 hours and growth curve
Description: Triplicate cultures of Salmonella were grown in a shaking incubator at 37° C. in plain LB, or LB containing 30 uM Mevinolin, and optical density was recorded at 23 hours after inoculation (results shown in FIG. 4A). Triplicate cultures of Salmonella were grown in a shaking incubator at 37° C. in plain LB or in LB containing 30 uM Mevinolin and optical density measurements were used to construct a growth curve (results shown in FIG. 4B).

[3] = test system: Legionella; format: cell-based
[4] = test system: RAW 264.7 macrophages; assay: Host cell viability (Alamar Blue reduction); format: cell-based; conditions: 10 nM to 100 uM mevinolin with or without mevalonate, 24 hours, Alamar Blue 3 hours
Description: RAW 264.7 macrophages were plated at a density of 1×10^5 cells/well and each sample represents the mean of six wells. Cells were treated with concentrations of mevinolin at 10 nM (1), 100 nM (2), 500 nM (3), 1 uM (4), 10 uM (5), 50 uM (6), 100 uM (7), 50 uM mevinolin+50 uM mevalonate (8), 50 uM mevinolin+150 uM mevalonate (9), 100 uM mevinolin+50 uM mevalonate (10), and 100 uM mevinolin+150 uM mevalonate (11), for 24 hours at 37° C. and then incubated with Alamar Blue for 3 hours.

[5] = test system: Salmonella; assay: Intracellular growth of Salmonella in RAW 264.7 macrophages (colony forming units); format: cell-based, S. typhimurium
Description: RAW 264.7 macrophages were plated in triplicate at a density of 5×10^5 cells/well, and incubated for 6 hours prior to infection with various treatments (DMEM-FBS, DMEM-LPDS, DMEM-D-FBS+30 uM Mevinolin, or DMEM-FBS+30 uM Mevinolin, or DMEM-FBS+30 uM Mevinolin+150 uM mevalonate). Cells were infected at a multiplicity of infection of 10 bacteria per cell for 15 minutes at 37° C. After infection, monolayers were incubated in media containing 100 ug/ml gentamicin to kill extracellular bacteria and then maintained in media containing 10 ug/ml for the remainder of the experiment. At 20 hours post infection, the cells were washed three times in PBS, lysed in 1% Triton X-100 and then plated to determine colony forming units.
RAW 264.7 macrophages were plated in triplicate at a density of 4×10^5 cells/well, and infected with bacteria at a multiplicity of infection of 10 bacteria per cell for 15 minutes at 37° C.
After infection, the 12 ug/ml of 4,4,10-β trimethyl-trans-decal-3β-ol (TMD) inhibitor was added to the media which also contained 100 ug/ml gentamicin. At 2 hours post infection, the gentamicin concentration was lowered to 10 ug/ml and maintained for the remainder of the experiment. At 20 hours post infection, cells were lysed with 1% Triton X-100 and bacteria were plated for colony forming units.
Macrophages were treated with 50 nM mevinolin for 3 days prior to infection. Cells were infected as described above, lysed with Triton X-100 at 2 and 20 hours post infection, and then plated to determine colony forming units.

[6] = test system: conversion of squalene oxide to lanosterol; assay: Cholesterol synthesis in TMD-treated macrophages; format: cell-based; conditions: 12 ug/ml TMD, RAW 264.7 macrophages

Structure (SMILES): CC[C@H](C)C(=O)O[C@H]1C[C@@H](C)C=C2C=C[C@H](C)[C@H](CC[C@@H]3C[C@@H](O)CC(=O)O3)[C@H]21 [mevinolin]
- apoptosis in Salmonella-infected macrophages (TUNEL staining) [1]: induces apoptosis in Salmonella-infected macrophages
- bacterial growth in liquid culture (extracellular growth of Salmonella) [2]: does not affect bacterial growth in liquid culture
- intracellular growth of Legionella in human macrophages [3]: inhibited intracellular growth of Legionella in human macrophages
- reversal of the defect in Legionella intracellular growth by mevalonate [3]: could be reversed by the addition of mevalonate
- host cell viability [4]: host cell viability is not affected
- intracellular growth of Salmonella at physiologically relevant concentration ([5]; 50 nM mevinolin for 3 days prior to infection, CFU at 2 and 20 hours post infection): inhibit the intracellular growth of Salmonella
- reversal of the defect in Salmonella intracellular growth by mevalonate ([5]; 30 uM mevinolin + 150 uM mevalonate, RAW 264.7 macrophages): can be reversed by the addition of mevalonate
- Salmonella's intracellular survival ([5]; RAW 264.7 macrophages, 30 uM mevinolin from 6 hours prior to infection, CFU at 20 hours post infection): decreased Salmonella's intracellular survival by a factor of ten

Structure (SMILES): CC1(C)[C@@H](O)CC[C@]2(C)CCCC[C@@H]12 (relative stereo) [TMD, 4,4,10-β trimethyl-trans-decal-3β-ol]
- cholesterol synthesis of treated cells [6]: accumulated intermediate precursors and made very little cholesterol
- intracellular survival of Salmonella ([5]; 12 ug/ml TMD added after infection, RAW 264.7 macrophages, CFU at 20 hours post infection): did not lead to a decrease in intracellular survival of Salmonella

Source: US20030087430A1 (priority 2001, published 2003)
